From ChEMBL document CHEMBL1134253, “HIV Rev peptides conjugated with peptide nucleic acids and their efficient binding to RRE RNA” (Bioorg Med Chem Lett, 2001)

Tests used:
[1] = biological target: Rev responsive element (RRE) RNA; test: Dissociation constant of compound with Rev-responsive element (RRE) IIB RNA was determined by the competition assay; type: nucleic-acid assay
[2] = test system: Rev responsive element (RRE) RNA; test: Ratio of the dissociation constant between Rev37-50 and the PNA-peptide; type: nucleic-acid assay

SMILES	Kd [1]	Ratio [2]
C[C@H](NC(=O)CN(CCNC(=O)CN(CCNC(=O)CN(CCNC(=O)CCC(=O)O)C(=O)Cn1cnc2c(=O)[nH]c(N)nc21)C(=O)Cn1cnc2c(=O)[nH]c(N)nc21)C(=O)Cn1ccc(N)nc1=O)C(=O)N[C@@H](CCCNC(=N)N)C(=O)N[C@@H](CCCNC(=N)N)C(=O)N[C@@H](CC(N)=O)C(=O)N[C@@H](CCCNC(=N)N)C(=O)N[C@@H](CCCNC(=N)N)C(=O)N[C@@H](CCCNC(=N)N)C(=O)N[C@@H](CCCNC(=N)N)C(=O)N[C@@H](Cc1c[nH]c2ccccc12)C(=O)N[C@@H](CCCNC(=N)N)C(=O)N[C@@H](CCC(=O)O)C(=O)N[C@@H](CCCNC(=N)N)C(=O)N[C@@H](CCC(N)=O)C(=O)N[C@H](CCCNC(=N)N)C(N)=O	0.0087 µM	9.9
C[C@H](NC(=O)CN(CCNC(=O)CN(CCNC(=O)CCC(=O)O)C(=O)Cn1ccc(N)nc1=O)C(=O)Cn1ccc(N)nc1=O)C(=O)N[C@@H](CCCNC(=N)N)C(=O)N[C@@H](CCCNC(=N)N)C(=O)N[C@@H](CC(N)=O)C(=O)N[C@@H](CCCNC(=N)N)C(=O)N[C@@H](CCCNC(=N)N)C(=O)N[C@@H](CCCNC(=N)N)C(=O)N[C@@H](CCCNC(=N)N)C(=O)N[C@@H](Cc1c[nH]c2ccccc12)C(=O)N[C@@H](CCCNC(=N)N)C(=O)N[C@@H](CCC(=O)O)C(=O)N[C@@H](CCCNC(=N)N)C(=O)N[C@@H](CCC(N)=O)C(=O)N[C@H](CCCNC(=N)N)C(N)=O	0.028 µM	3.1
CC(=O)N(CCNC(=O)NCC(=O)O)CC(=O)N[C@H](C)C(=O)N[C@@H](CCCNC(=N)N)C(=O)N[C@@H](CCCNC(=N)N)C(=O)N[C@@H](CC(N)=O)C(=O)N[C@@H](CCCNC(=N)N)C(=O)N[C@@H](CCCNC(=N)N)C(=O)N[C@@H](CCCNC(=N)N)C(=O)N[C@@H](CCCNC(=N)N)C(=O)N[C@@H](Cc1c[nH]c2ccccc12)C(=O)N[C@@H](CCCNC(=N)N)C(=O)N[C@@H](CCC(=O)O)C(=O)N[C@@H](CCCNC(=N)N)C(=O)N[C@@H](CCC(N)=O)C(=O)N[C@H](CCCNC(=N)N)C(N)=O	0.044 µM	2
C[C@H](NC(=O)CN(CCNC(=O)CN(CCNC(=O)CN(CCNC(=O)CCC(=O)O)C(=O)Cn1ccc(N)nc1=O)C(=O)Cn1ccc(N)nc1=O)C(=O)Cn1ccc(N)nc1=O)C(=O)N[C@@H](CCCNC(=N)N)C(=O)N[C@@H](CCCNC(=N)N)C(=O)N[C@@H](CC(N)=O)C(=O)N[C@@H](CCCNC(=N)N)C(=O)N[C@@H](CCCNC(=N)N)C(=O)N[C@@H](CCCNC(=N)N)C(=O)N[C@@H](CCCNC(=N)N)C(=O)N[C@@H](Cc1c[nH]c2ccccc12)C(=O)N[C@@H](CCCNC(=N)N)C(=O)N[C@@H](CCC(=O)O)C(=O)N[C@@H](CCCNC(=N)N)C(=O)N[C@@H](CCC(N)=O)C(=O)N[C@H](CCCNC(=N)N)C(N)=O	0.034 µM	2.5
C[C@H](NC(=O)CN(CCNC(=O)CN(CCNC(=O)CN(CCNC(=O)CN(CCNC(=O)CCC(=O)O)C(=O)Cn1cnc2c(=O)[nH]c(N)nc21)C(=O)Cn1ccc(N)nc1=O)C(=O)Cn1cnc2c(=O)[nH]c(N)nc21)C(=O)Cn1ccc(N)nc1=O)C(=O)N[C@@H](CCCNC(=N)N)C(=O)N[C@@H](CCCNC(=N)N)C(=O)N[C@@H](CC(N)=O)C(=O)N[C@@H](CCCNC(=N)N)C(=O)N[C@@H](CCCNC(=N)N)C(=O)N[C@@H](CCCNC(=N)N)C(=O)N[C@@H](CCCNC(=N)N)C(=O)N[C@@H](Cc1c[nH]c2ccccc12)C(=O)N[C@@H](CCCNC(=N)N)C(=O)N[C@@H](CCC(=O)O)C(=O)N[C@@H](CCCNC(=N)N)C(=O)N[C@@H](CCC(N)=O)C(=O)N[C@H](CCCNC(=N)N)C(N)=O	0.0057 µM	15
C[C@H](NC(=O)CCC(=O)O)C(=O)N[C@@H](CCCNC(=N)N)C(=O)N[C@@H](CCCNC(=N)N)C(=O)N[C@@H](CC(N)=O)C(=O)N[C@@H](CCCNC(=N)N)C(=O)N[C@@H](CCCNC(=N)N)C(=O)N[C@@H](CCCNC(=N)N)C(=O)N[C@@H](CCCNC(=N)N)C(=O)N[C@@H](Cc1c[nH]c2ccccc12)C(=O)N[C@@H](CCCNC(=N)N)C(=O)N[C@@H](CCC(=O)O)C(=O)N[C@@H](CCCNC(=N)N)C(=O)N[C@@H](CCC(N)=O)C(=O)N[C@H](CCCNC(=N)N)C(N)=O	0.086 µM	1
Cc1cn(CC(=O)N(CCNC(=O)CCC(=O)O)CC(=O)NCCN(CC(=O)NCCN(CC(=O)N[C@@H](C)C(=O)N[C@@H](CCCNC(=N)N)C(=O)N[C@@H](CCCNC(=N)N)C(=O)N[C@@H](CC(N)=O)C(=O)N[C@@H](CCCNC(=N)N)C(=O)N[C@@H](CCCNC(=N)N)C(=O)N[C@@H](CCCNC(=N)N)C(=O)N[C@@H](CCCNC(=N)N)C(=O)N[C@@H](Cc2c[nH]c3ccccc23)C(=O)N[C@@H](CCCNC(=N)N)C(=O)N[C@@H](CCC(=O)O)C(=O)N[C@@H](CCCNC(=N)N)C(=O)N[C@@H](CCC(N)=O)C(=O)N[C@H](CCCNC(=N)N)C(N)=O)C(=O)Cn2ccc(N)nc2=O)C(=O)Cn2cnc3c(=O)[nH]c(N)nc32)c(=O)[nH]c1=O	0.017 µM	5.1
C[C@H](NC(=O)CN(CCNC(=O)CCC(=O)O)C(=O)Cn1ccc(N)nc1=O)C(=O)N[C@@H](CCCNC(=N)N)C(=O)N[C@@H](CCCNC(=N)N)C(=O)N[C@@H](CC(N)=O)C(=O)N[C@@H](CCCNC(=N)N)C(=O)N[C@@H](CCCNC(=N)N)C(=O)N[C@@H](CCCNC(=N)N)C(=O)N[C@@H](CCCNC(=N)N)C(=O)N[C@@H](Cc1c[nH]c2ccccc12)C(=O)N[C@@H](CCCNC(=N)N)C(=O)N[C@@H](CCC(=O)O)C(=O)N[C@@H](CCCNC(=N)N)C(=O)N[C@@H](CCC(N)=O)C(=O)N[C@H](CCCNC(=N)N)C(N)=O	0.031 µM	2.8
C[C@H](NC(=O)CN(CCNC(=O)CN(CCNC(=O)CCC(=O)O)C(=O)Cn1cnc2c(=O)[nH]c(N)nc21)C(=O)Cn1ccc(N)nc1=O)C(=O)N[C@@H](CCCNC(=N)N)C(=O)N[C@@H](CCCNC(=N)N)C(=O)N[C@@H](CC(N)=O)C(=O)N[C@@H](CCCNC(=N)N)C(=O)N[C@@H](CCCNC(=N)N)C(=O)N[C@@H](CCCNC(=N)N)C(=O)N[C@@H](CCCNC(=N)N)C(=O)N[C@@H](Cc1c[nH]c2ccccc12)C(=O)N[C@@H](CCCNC(=N)N)C(=O)N[C@@H](CCC(=O)O)C(=O)N[C@@H](CCCNC(=N)N)C(=O)N[C@@H](CCC(N)=O)C(=O)N[C@H](CCCNC(=N)N)C(N)=O	0.016 µM	5.4
CC(=O)NCCN(CC(=O)NCCN(CC(=O)NCCN(CC(=O)NCCN(CC(=O)NCCN(CC(=O)N[C@@H](CCCCN)C(=O)CN)C(=O)Cn1ccc(N)nc1=O)C(=O)Cn1cnc2c(O)nc(N)nc21)C(=O)Cn1ccc(N)nc1=O)C(=O)Cn1cnc2c(O)nc(N)nc21)C(=O)Cn1cc(C)c(=O)[nH]c1=O	> 100 µM	–
Cc1cn(CC(=O)N(CCNC(=O)CCC(=O)O)CC(=O)N[C@@H](C)C(=O)N[C@@H](CCCNC(=N)N)C(=O)N[C@@H](CCCNC(=N)N)C(=O)N[C@@H](CC(N)=O)C(=O)N[C@@H](CCCNC(=N)N)C(=O)N[C@@H](CCCNC(=N)N)C(=O)N[C@@H](CCCNC(=N)N)C(=O)N[C@@H](CCCNC(=N)N)C(=O)N[C@@H](Cc2c[nH]c3ccccc23)C(=O)N[C@@H](CCCNC(=N)N)C(=O)N[C@@H](CCC(=O)O)C(=O)N[C@@H](CCCNC(=N)N)C(=O)N[C@@H](CCC(N)=O)C(=O)N[C@H](CCCNC(=N)N)C(N)=O)c(=O)[nH]c1=O	0.039 µM	2.2
C[C@H](NC(=O)CN(CCNC(=O)CCC(=O)O)C(=O)Cn1cnc2c(=O)[nH]c(N)nc21)C(=O)N[C@@H](CCCNC(=N)N)C(=O)N[C@@H](CCCNC(=N)N)C(=O)N[C@@H](CC(N)=O)C(=O)N[C@@H](CCCNC(=N)N)C(=O)N[C@@H](CCCNC(=N)N)C(=O)N[C@@H](CCCNC(=N)N)C(=O)N[C@@H](CCCNC(=N)N)C(=O)N[C@@H](Cc1c[nH]c2ccccc12)C(=O)N[C@@H](CCCNC(=N)N)C(=O)N[C@@H](CCC(=O)O)C(=O)N[C@@H](CCCNC(=N)N)C(=O)N[C@@H](CCC(N)=O)C(=O)N[C@H](CCCNC(=N)N)C(N)=O	0.03 µM	2.9
Cc1cn(CC(=O)N(CCNC(=O)CCC(=O)O)CC(=O)NCCN(CC(=O)NCCN(CC(=O)NCCN(CC(=O)NCCN(CC(=O)N[C@@H](C)C(=O)N[C@@H](CCCNC(=N)N)C(=O)N[C@@H](CCCNC(=N)N)C(=O)N[C@@H](CC(N)=O)C(=O)N[C@@H](CCCNC(=N)N)C(=O)N[C@@H](CCCNC(=N)N)C(=O)N[C@@H](CCCNC(=N)N)C(=O)N[C@@H](CCCNC(=N)N)C(=O)N[C@@H](Cc2c[nH]c3ccccc23)C(=O)N[C@@H](CCCNC(=N)N)C(=O)N[C@@H](CCC(=O)O)C(=O)N[C@@H](CCCNC(=N)N)C(=O)N[C@@H](CCC(N)=O)C(=O)N[C@H](CCCNC(=N)N)C(N)=O)C(=O)Cn2ccc(N)nc2=O)C(=O)Cn2cnc3c(=O)[nH]c(N)nc32)C(=O)Cn2ccc(N)nc2=O)C(=O)Cn2cnc3c(=O)[nH]c(N)nc32)c(=O)[nH]c1=O	0.0054 µM	16
C[C@H](NC(=O)CN(CCNC(=O)CN(CCNC(=O)CN(CCNC(=O)CCC(=O)O)C(=O)Cn1cnc2c(N)ncnc21)C(=O)Cn1cnc2c(=O)[nH]c(N)nc21)C(=O)Cn1ccc(N)nc1=O)C(=O)N[C@@H](CCCNC(=N)N)C(=O)N[C@@H](CCCNC(=N)N)C(=O)N[C@@H](CC(N)=O)C(=O)N[C@@H](CCCNC(=N)N)C(=O)N[C@@H](CCCNC(=N)N)C(=O)N[C@@H](CCCNC(=N)N)C(=O)N[C@@H](CCCNC(=N)N)C(=O)N[C@@H](Cc1c[nH]c2ccccc12)C(=O)N[C@@H](CCCNC(=N)N)C(=O)N[C@@H](CCC(=O)O)C(=O)N[C@@H](CCCNC(=N)N)C(=O)N[C@@H](CCC(N)=O)C(=O)N[C@H](CCCNC(=N)N)C(N)=O	0.015 µM	5.7
Cc1cn(CC(=O)N(CCNC(=O)CCC(=O)O)CC(=O)NCCN(CC(=O)N[C@@H](C)C(=O)N[C@@H](CCCNC(=N)N)C(=O)N[C@@H](CCCNC(=N)N)C(=O)N[C@@H](CC(N)=O)C(=O)N[C@@H](CCCNC(=N)N)C(=O)N[C@@H](CCCNC(=N)N)C(=O)N[C@@H](CCCNC(=N)N)C(=O)N[C@@H](CCCNC(=N)N)C(=O)N[C@@H](Cc2c[nH]c3ccccc23)C(=O)N[C@@H](CCCNC(=N)N)C(=O)N[C@@H](CCC(=O)O)C(=O)N[C@@H](CCCNC(=N)N)C(=O)N[C@@H](CCC(N)=O)C(=O)N[C@H](CCCNC(=N)N)C(N)=O)C(=O)Cn2ccc(N)nc2=O)c(=O)[nH]c1=O	0.027 µM	3.2
